From patent US20050181042A1, “Composition for oral or rectal administration” (priority 2002, published 2005)

Assay: Plasma gentamycin after oral administration to NZW rabbits
Format: in vivo
Conditions: for Plasma concentration of gentamycin: n = 3
Method: NZW rabbits were used in all experiments and all tablet/capsules were administered orally. The animals were given four, five or six tablets/capsules followed by water until they had swallowed the tablets/capsules. The animals were deprived of food for about 18 hours before dosing. […] The blood samples were centrifuged for 10 min at approximately 2000×g to obtain plasma for determination of gentamycin by EMIT 2000 TDM assay on a Hitachi 704 Analyzer (Table 10).
The area under the curve (AUC) was calculated by the linear trapezoidal rule to the last blood concentration. Two different doses (5 or 10 mg/kg bodyweight) were used during the experiments. For comparison of the results of the different formulations the AUC was divided by the respective dose of gentamycin. The obtained plasma concentration for pure gentamycin was set to 1. The obtained plasma concentrations for gentamycin in the three different lipid formulations were then expressed as multiple factors of increasing bioabsorption.

## Gentamycin sulphate [Gentamycin 1]
dose-adjusted AUC relative to Gentamycin 1
  Correlation factor (multiple of bioabsorption, pure gentamycin = 1): 1
oral, dose 10 mg/kg, 0 hrs
  Plasma concentration of gentamycin: 0 microgram/mL
oral, dose 10 mg/kg, 0.5 hrs
  Plasma concentration of gentamycin: 0.01 microgram/mL
oral, dose 10 mg/kg, 1 hr
  Plasma concentration of gentamycin: 0.01 microgram/mL
oral, dose 10 mg/kg, 2 hrs
  Plasma concentration of gentamycin: 0.02 microgram/mL
oral, dose 10 mg/kg, 4 hrs
  Plasma concentration of gentamycin: 0.01 microgram/mL
oral, dose 10 mg/kg, 6 hrs
  Plasma concentration of gentamycin: 0.03 microgram/mL
oral, dose 10 mg/kg, linear trapezoidal rule to last blood concentration (6 hrs)
  AUC: 0.09
